This test addresses mouse recombinant isozyme PKCα (Mus musculus, UniProt P20444). Briefly: [3H]PDBu binding assay (displacement of bound [20-3H]phorbol 12,13-dibutyrate). To be noted: displacement of [3H]PDBu from PKCα in the presence of calcium and phosphatidylserine; read-out: inhibitory dissociation constant (Ki). As for the experimental part: The inhibitory dissociation constant (Ki) of each bryologue ligand was determined by the ability of the ligand to displace bound [20-^3H]phorbol 12,13-dibutyrate (PDBu) from mouse recombinant isozyme PKC α in the presence of calcium and phosphatidylserine, using a polyethylene glycol precipitation assay developed in our laboratory as described elsewhere. Briefly, the assay mixture (250 μL) contained 50 mM Tris-HCl (pH 7.4 at room temperature), 100 μg/mL phosphatidylserine, 0.1 mM Ca^2+, 4 mg/mL bovine immunoglobulin G and 0.003% Tx-100, 2 nM [^3H]PDBu and various concentrations of the competing ligand. […] The radioactivity was determined by scintillation counting, using Cytoscint (ICN, Costa Mesa, Calif.). Specific binding was calculated as the difference between total and nonspecific PDBu binding. The Inhibitory dissociation constants (Ki) were calculated using the method previously described by Blumberg and Lewin.
The inhibitory dissociation constant (Ki) of MERLE 28 was determined by the ability of the ligand to displace bound [20-^3H]phorbol 12,13-dibutyrate (PDBu) from mouse recombinant isozyme PKCα in the presence of calcium and phosphatidylserine, using a polyethylene glycol precipitation assay previously described by Blumberg and Lewin. […] The radioactivity was determined by scintillation counting, using Cytoscint (ICN, Costa Mesa, Calif.). […]
Background: In a radioligand displacement assay an active substance lowers the binding of a labelled ligand.

As for `C=C1C[C@H]2C[C@H]3C[C@@H](OC(C)=O)C[C@@H](C[C@@H](O)CC(=O)O[C@@H]([C@@H](C)O)C[C@@H]4C/C(=C\C(=O)OC)[C@H](OC(=O)CCCCCCC)[C@@](O)(O4)C(C)(C)/C=C/[C@@H](C1)O2)O3` [MERLE 27], the inhibition constant (Ki) stood at 3 ± 0.6 nM.

In general, Ki refers to the equilibrium dissociation constant of an inhibitor or competing ligand from its target.

The values are drawn from patent publication US9096550B2, “Bryostatin analogues and methods of making and using thereof” (UNIVERSITY OF UTAH RESEARCH FOUNDATION, priority 2008, dated 2015).
